Measured values taken from patent US20230173029A1, “TREATMENT OF CARDIAC REMODELLING” (UNIVERSITETET I OSLO, priority 2020, published 2023).

Legend:
Format in all cases: in vivo, rat
[1] = tested on: SMAD2; assay: Western blot of nuclear phosphorylated SMAD2 in left ventricle tissue; details: HT Dahl/SS rats, 50 or 100 ng/kg/day s.c. (pooled), FIG. 2E
Method: (§1) A total of 29 adult Dahl salt-sensitive (Dahl/SS) male rats with an initial weight of 150 to 200 g were included in the study. Rats were purchased from Charles River Laboratories (USA) and housed in a room with a 12/12-hour light cycle, a temperature of 21° C., and a humidity of 55%. Rats were maintained on a normal salt diet up to seven weeks of age. Twenty-two Dahl/SS were then randomly switched to a high salt diet for 6 weeks to induce hypertension, whilst 7 rats were kept normotensive (NT) on normal salt diet. Drinking water and food was provided ad libitum.
After 2 weeks of high salt diet, 15 hypertensive (HT) rats were started on treatment with proANP31-67. […]
Enriched nuclear protein fraction from left ventricle tissue was isolated using Compartment Protein Extraction Kit (Merck Millipore, Cat. #2145), according to the manufacturer's specifications. Protein concentration was measured by BCA assay kit (Thermo Fisher Scientific, Cat. #23225). […] Membranes were analysed with rabbit anti-SMAD2/3 (1:1000, Cell Signaling Technology, Cat. #8685) and rabbit anti-phospho-SMAD2 (Ser465/467) (1:500, Cell Signaling Technology, Cat. #3108). The membranes were developed using the ECL system (Pierce Protein Research Products) and ChemiDoc XRS (Bio-Rad), and quantified using Image Lab™ software (version 6.0.1, Bio-Rad).

[2] = tested on: Dahl salt-sensitive (Dahl/SS) male rats; assay: Renal function and structure in hypertensive Dahl/SS rats (data not shown); details: HT Dahl/SS rats
[3] = tested on: Dahl salt-sensitive (Dahl/SS) male rats; assay: Tail-cuff blood pressure measurement in hypertensive Dahl/SS rats; details: for DBP (diastolic blood pressure) / MAP (mean arterial pressure) / SBP (systolic blood pressure): HT Dahl/SS rats on high salt diet, at 6 weeks, mean ± SEM
Method: as §1
(§2) After 2 weeks of high salt diet, 15 hypertensive (HT) rats were started on treatment with proANP31-67. Rats treated with proANP31-67 received one of two dosages: 50 ng/kg/day (n=8) or 100 ng/kg/day (n=7). A total of 14 rats received only vehicle: control rats on a normal salt diet (n=7); and HT rats on a high salt diet (n=7). Rats were randomly assigned to the 3 groups (i.e. control normal salt; high salt untreated; high salt plus treatment).
(§3) Drug or vehicle was delivered via Alzet osmotic mini-pumps (Model 2004; mean pumping rate […], mean fill volume […]) implanted subcutaneously (as instructed by the manufacturer) for 28 days. Animals were treated with buprenorphine (0.05 mg/kg s.c.) as analgesic 30 minutes before and up to 1 day following implantation of pumps.
Measurement was carried out using the CODA non-invasive blood pressure acquisition system for rats (Kent Scientific Corporation). Animals were kept in restraint tubes and placed over a heating platform (preheated to 33 to 35° C.) and blood pressure measured by a tail-cuff system. Each recording session consisted of 25 acclimation cycles (not used in the analysis), followed by 20 inflation and deflation cycles (the occlusion cuff is inflated to 250 mm Hg and deflated over 20 s). Rats were trained for at least 5 consecutive days before blood pressure measurements were recorded.
(§4) Experiments were performed as described above in Example 1, using a group of 8 Dahl/SS rats which, at 7 weeks of age, were switched to a high salt diet as described above. After 2 weeks of high salt diet, this group was started on proANP31-67 treatment. The rats were administered proANP31-67 at a renal sub-therapeutic dosage of 25 ng/kg/day.

[4] = tested on: Dahl salt-sensitive (Dahl/SS) male rats; assay: Autopsy: body weight, heart weight and heart weight to body weight ratio in hypertensive Dahl/SS rats; details: for HW (heart weight) / HW/BW: HT Dahl/SS rats on high salt diet, at 6 weeks, mean ± SEM
Method: as §1, §2, §3, §4

[5] = tested on: Myh7; assay: Myh7 gene expression in left ventricle tissue by qPCR; details: HT Dahl/SS rats
Method: as §1
After 2 weeks of high salt diet, 15 hypertensive (HT) rats were started on treatment with proANP31-67. Rats treated with proANP31-67 received one of two dosages: 50 ng/kg/day (n=8) or 100 ng/kg/day (n=7). […]
Total RNA was extracted from left ventricle tissue using an RNeasy Fibrous Tissue Mini Kit (Qiagen, Cat. #74704). RNA concentration and quality was assessed by NanoDrop ND-1000 Spectrophotometer (Thermo Fisher Scientific). cDNA synthesis was performed using an iSCRIPT synthesis kit (Bio-Rad). Transcript levels of Mhy7 (Rn00568328_m1) and Rpl32 (Rn00820748_g1) were determined using TaqMan assays (Applied Biosystems) detected on a QuantStudio3 (Thermo Fisher Scientific) and analysed using QuantStudio™ Design (Thermo Fisher Scientific). Mhy7 mRNA levels were calculated by the ΔΔCt method and normalized to Rpl32 transcript value. […]

[6] = 50 or 100 ng/kg/day s.c. (pooled) for 28 days

proANP31-67: Human proANP31-67, linear peptide fragment of proANP consisting of SEQ ID NO: 1; also known as vessel dilator, VSDL (EVVPPQVLSEPNEEAGAALSPLPEVPPWTGEVSPAQR; listed as Homo sapiens)
SMAD2 phosphorylation (nuclear) compared to untreated HT rats [1]: significantly lower
protective effects on renal function ([2]; 25 ng/kg/day s.c.): not to display the protective effects on renal function
effects on renal function and structure ([2]; 50 or 100 ng/kg/day s.c., data not shown): protective effects on renal function and structure
DBP (diastolic blood pressure) ([3]; 25 ng/kg/day s.c.): 120.1 ± 4.7 mmHg
MAP (mean arterial pressure) ([3]; 25 ng/kg/day s.c.): 138.6 ± 4.1 mmHg
SBP (systolic blood pressure) ([3]; 25 ng/kg/day s.c.): 176.5 ± 3.4 mmHg
DBP (diastolic blood pressure) [3, 6]: 128.2 ± 2.3 mmHg
MAP (mean arterial pressure) [3, 6]: 144.9 ± 2.3 mmHg
SBP (systolic blood pressure) [3, 6]: 179.3 ± 2.4 mmHg
effect on systolic blood pressure ([3]; HT Dahl/SS rats, 25 ng/kg/day s.c., FIG. 5A): no effect
effect on elevated systolic blood pressure ([3]; HT Dahl/SS rats, 50 or 100 ng/kg/day s.c. (pooled), FIG. 1A): not lowered
HW (heart weight) ([4]; 25 ng/kg/day s.c.): 1304 ± 41.4 mg
HW/BW ([4]; 25 ng/kg/day s.c.): 3.68 ± 0.07
HW (heart weight) [4, 6]: 1365 ± 30.1 mg
HW/BW [4, 6]: 3.97 ± 0.1 mg/g
increase in HW/BW relative to NT rats ([4]; HT Dahl/SS rats, 25 ng/kg/day s.c., FIG. 5B): no increase
percentage increase in heart weight/body weight compared to NT ([4]; HT Dahl/SS rats, 50 or 100 ng/kg/day s.c. (pooled), FIG. 1B): less than 5%
expression of the Myh7 gene associated with adverse cardiac hypertrophy ([5]; 25 ng/kg/day s.c., FIG. 5F): attenuated
expression of the Myh7 gene associated with adverse cardiac hypertrophy ([5]; 50 or 100 ng/kg/day s.c. (pooled), FIG. 1F): attenuated
